Data taken from ChEMBL document CHEMBL4052642, “4-Methyl-6,7-dihydro-4H-triazolo[4,5-c]pyridine-Based P2X7 Receptor Antagonists: Optimization of Pharmacokinetic Properties Leading to the Identification of a Clinical Candidate” (J Med Chem, 2017).
In brackets after ≈: the same amount, converted by molar mass. Activity calls are given as the source filed them. The rule behind the calls is not given here.

Legend:
Rattus norvegicus [1] = assay: Drug uptake in rat at 62.5 to 250 mg/kg administered via oral gavage on day 1 and day 4; assay type: ADME, organism-based; details: in vivo
Rattus norvegicus [2] = assay: Toxicity in rat at 62.5 to 250 mg/kg administered via oral gavage on day 1 and day 4; assay type: organism-based; details: in vivo
[3] = Protein binding in rat brain at 5 uM after 5 hrs by equilibrium dialysis method; assay type: ADME, tissue-based; details: read-out: PB (converted)
Rattus norvegicus [4] = assay: Ex vivo receptor occupancy at P2X7 in Sprague-Dawley rat brain at 10 mg/kg, po after 24 hrs by autoradiography; assay type: functional
[5] = Half life in cynomolgus monkey at 1 mg/kg, iv by LC-MS/MS analysis; assay type: ADME, organism-based, Macaca fascicularis; details: in vivo
[6] = biological target: P2X purinoceptor 2 (Homo sapiens) (UniProt Q9UBL9); assay: Antagonist activity at P2X2 (unknown origin) assessed as inhibition of BzATP-induced calcium flux up to 10 uM preincubated for 30 mins followed by BzATP addition measured over 180 secs by FLIPR assay
Chain of P2X purinoceptor 2 (Homo sapiens) (Q9UBL9 whole entry): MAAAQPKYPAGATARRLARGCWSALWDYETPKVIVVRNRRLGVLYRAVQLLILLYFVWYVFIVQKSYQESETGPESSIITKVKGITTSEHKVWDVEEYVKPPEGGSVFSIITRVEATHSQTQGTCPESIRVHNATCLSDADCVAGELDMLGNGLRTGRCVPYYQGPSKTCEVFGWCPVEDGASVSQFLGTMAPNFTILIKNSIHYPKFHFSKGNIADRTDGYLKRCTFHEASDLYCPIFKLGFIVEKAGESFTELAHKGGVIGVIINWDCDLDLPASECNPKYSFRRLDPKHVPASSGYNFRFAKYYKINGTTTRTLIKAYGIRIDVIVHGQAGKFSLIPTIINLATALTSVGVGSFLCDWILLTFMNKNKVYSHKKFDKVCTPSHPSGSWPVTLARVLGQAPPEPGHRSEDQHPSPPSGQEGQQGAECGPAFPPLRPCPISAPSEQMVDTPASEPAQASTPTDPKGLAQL

Liver = assay: Metabolic stability in rat liver microsomes at 1 uM after 5 to 60 mins by LC-MS/MS analysis; assay type: ADME, microsome
[7] = Oral bioavailability in Sprague-Dawley rat at 5 mg/kg by LC-MS/MS analysis; assay type: ADME, organism-based; details: in vivo
[8] = Clearance in Sprague-Dawley rat at 1 mg/kg, iv or 5 mg/kg, po by LC-MS/MS analysis; assay type: ADME, organism-based; details: in vivo
[9] = Clearance in beagle dog at 0.5 mg/kg, iv or 2.5 mg/kg, po by LC-MS/MS analysis; assay type: ADME, organism-based, Canis lupus familiaris; details: in vivo
[10] = Drug uptake in dog brain at 3 mg/kg, po after 96 hrs; assay type: ADME, organism-based, Canis lupus familiaris; details: read-out: Drug uptake
[11] = biological target: P2X purinoceptor 4 (Homo sapiens) (UniProt Q99571); assay: Antagonist activity at P2X4 (unknown origin) assessed as inhibition of BzATP-induced calcium flux up to 10 uM preincubated for 30 mins followed by BzATP addition measured over 180 secs by FLIPR assay
Chain of P2X purinoceptor 4 (Homo sapiens) (Q99571 whole entry): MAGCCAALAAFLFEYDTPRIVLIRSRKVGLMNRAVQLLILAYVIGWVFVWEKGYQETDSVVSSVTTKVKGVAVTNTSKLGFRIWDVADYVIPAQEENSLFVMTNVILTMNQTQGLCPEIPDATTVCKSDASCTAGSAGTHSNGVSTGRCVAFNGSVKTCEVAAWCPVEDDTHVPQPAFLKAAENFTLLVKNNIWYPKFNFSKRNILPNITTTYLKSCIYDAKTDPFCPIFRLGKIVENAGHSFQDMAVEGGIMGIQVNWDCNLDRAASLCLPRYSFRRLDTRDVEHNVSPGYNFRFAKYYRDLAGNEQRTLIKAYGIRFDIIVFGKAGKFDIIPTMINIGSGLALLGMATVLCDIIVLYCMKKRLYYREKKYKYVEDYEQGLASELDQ

P2X purinoceptor 7 = P2X purinoceptor 7 (Mus musculus, UniProt Q9Z1M0); assay: Antagonist activity at mouse P2X7 assessed as inhibition of BzATP-induced calcium flux preincubated for 30 mins followed by BzATP addition measured over 180 secs by FLIPR assay
Chain of P2X purinoceptor 7 (Q9Z1M0 whole entry): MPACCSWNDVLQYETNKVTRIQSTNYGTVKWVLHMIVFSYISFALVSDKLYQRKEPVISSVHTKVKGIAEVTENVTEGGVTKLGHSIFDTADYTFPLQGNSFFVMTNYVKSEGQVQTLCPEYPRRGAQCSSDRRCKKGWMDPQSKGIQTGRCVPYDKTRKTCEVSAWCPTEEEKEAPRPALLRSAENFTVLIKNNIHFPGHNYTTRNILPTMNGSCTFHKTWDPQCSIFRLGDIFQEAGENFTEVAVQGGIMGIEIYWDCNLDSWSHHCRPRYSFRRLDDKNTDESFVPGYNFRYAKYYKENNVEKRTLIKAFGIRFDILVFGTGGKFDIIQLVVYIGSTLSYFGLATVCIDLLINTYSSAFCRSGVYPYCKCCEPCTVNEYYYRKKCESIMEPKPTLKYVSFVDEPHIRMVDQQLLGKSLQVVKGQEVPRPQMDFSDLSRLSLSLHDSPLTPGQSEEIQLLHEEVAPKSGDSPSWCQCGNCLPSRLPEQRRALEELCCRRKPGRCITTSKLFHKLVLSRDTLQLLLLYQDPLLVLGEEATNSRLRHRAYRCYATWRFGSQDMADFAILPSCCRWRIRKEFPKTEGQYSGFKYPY

[12] = Solubility of compound in phosphate buffer at pH 2 after 3 days; assay type: physicochemical
[13] = biological target: P2X2/P2X3 heterotrimeric receptor (Homo sapiens) (UniProt Q9UBL9+P56373); assay: Antagonist activity at P2X2/3 (unknown origin) assessed as inhibition of BzATP-induced calcium flux up to 10 uM preincubated for 30 mins followed by BzATP addition measured over 180 secs by FLIPR assay; assay type: protein-complex assay
[14] = biological target: P2X purinoceptor 7 (Homo sapiens) (UniProt Q99572); details: 100 pM
Chain of P2X purinoceptor 7 (Homo sapiens) (Q99572 whole entry): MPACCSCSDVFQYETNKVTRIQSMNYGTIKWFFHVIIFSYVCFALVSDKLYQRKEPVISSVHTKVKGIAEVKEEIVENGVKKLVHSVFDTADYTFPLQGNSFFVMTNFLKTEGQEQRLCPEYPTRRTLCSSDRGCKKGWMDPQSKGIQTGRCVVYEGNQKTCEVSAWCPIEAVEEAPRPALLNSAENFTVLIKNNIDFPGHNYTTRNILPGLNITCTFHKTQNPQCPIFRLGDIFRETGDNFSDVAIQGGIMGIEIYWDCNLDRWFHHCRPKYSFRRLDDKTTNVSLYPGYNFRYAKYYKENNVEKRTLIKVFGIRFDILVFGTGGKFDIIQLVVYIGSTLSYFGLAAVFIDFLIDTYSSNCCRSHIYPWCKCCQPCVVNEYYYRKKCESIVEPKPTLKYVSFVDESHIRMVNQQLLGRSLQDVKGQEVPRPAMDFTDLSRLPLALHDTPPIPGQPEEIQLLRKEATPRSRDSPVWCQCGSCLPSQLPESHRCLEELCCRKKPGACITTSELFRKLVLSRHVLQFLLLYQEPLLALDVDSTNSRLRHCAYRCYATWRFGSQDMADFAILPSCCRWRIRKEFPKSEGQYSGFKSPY
Description: Displacement of [3H]-(6S)-7-[[2-chloro-3-(trifluoromethyl)phenyl]methyl]-6-methyl-3-pyrimidin-2-yl-5,6dihydro[1,2,4]triazolo[4,3-a]pyrazin-8-one from P2X7 in human superior frontal gyrus at 100 pM to 10 uM

Canis familiaris = assay: Toxicity in dog at 30 to 300 mg/kg administered via oral gavage on day 1 and day 5 by hematoxylin-eosin staining-based necroscopic method; assay type: organism-based, Canis lupus familiaris; details: in vivo

**Q.** Which Drug uptake (Rattus norvegicus [1]) does the source give for C[C@@H]1c2nnn(-c3ncc(F)cn3)c2CCN1C(=O)c1cccc(C(F)(F)F)c1Cl [JNJ-54175446] here?
**A.** Active

**Q.** And the Activity (Rattus norvegicus [2])?
**A.** Non-Toxic

**Q.** And the fraction unbound at 5 h, 5 µM [3]?
**A.** 0.051

**Q.** What about the Occ (Rattus norvegicus [4]) of the same compound?
**A.** >80%

**Q.** And the half-life [5]?
**A.** 6.9 h

**Q.** What about the inhibition [6] of the same compound?
**A.** inactive

**Q.** What about the Stability (Liver) of the same compound?
**A.** Stable

**Q.** What about the bioavailability [7] of the same compound?
**A.** 96%

**Q.** What about the clearance [8] of the same compound?
**A.** 2.9 mL/min/kg

**Q.** What about the clearance [9] of the same compound?
**A.** 0.9 mL/min/kg

**Q.** What about the concentration at 96 h [10] of the same compound?
**A.** > 1000 nM

**Q.** What about the inhibition [11] of the same compound?
**A.** inactive

**Q.** What about the IC50 (P2X purinoceptor 7) of the same compound?
**A.** 15.8 nM

**Q.** And the solubility at 72 h [12]?
**A.** 38.7 µM (≈ 17.1 µg/mL)

**Q.** What about the inhibition [13] of the same compound?
**A.** inactive

**Q.** And the inhibition [14]?
**A.** Dose-dependent effect

**Q.** What about the Activity (Canis familiaris) of the same compound?
**A.** Non-Toxic
